Patent publication US20180326014A1, “PHARMACEUTICAL FORMULATIONS FOR THE TREATMENT OF DIABETES” (KALEYDE PHARMACEUTICALS AG, priority 2016, published 2018)
Where two headings read alike, the source gives them in different places. Where a SMILES comes first, the peptide text is derived from it. [ ]: non-standard residue; d: D form. ξ: configuration not given here. ξαMeF = CC(N)(Cc1ccccc1)C(=O)O; Aib = CC(C)(N)C(=O)O

Experiments:
[1] = system: SD-STZ rats (Sprague-Dawley rats rendered diabetic with streptozotocin); experiment: Retinal function by ERG (SOPs) in rats rendered diabetic with streptozotocin; details: daily administration, peptide groups C and E, insulin alone printed as groups B and D
Procedure: (§1) The severity of the diabetic state was evaluated by daily monitoring of body weight, clinical signs and blood glucose levels.
(§2) The dose of STZ was prepared at the time of use by dissolving the compound in 0.05M citrate buffer, pH 4.5. For the STZ administration, the animals were placed in the dorsal position and the injection site was disinfected and buffered with an iodine-povidone solution; the i.p. injection was performed in the caudal abdominal cavity of the rats, using a sterile 25 g needle. The severity of the diabetes caused by administration of STZ was monitored daily, evaluating blood glucose levels with the One-Touch profile (LifeScan, Milpitas, Calif.), every day; urine glucose with Clinistix (Bayer Diagnostica, Basingstoke, United Kingdom), twice a week; insulin levels, twice a week, with an RIA Kit (BioRad, Milan, Italy).
(§3) 5) subcutaneously twice a day. The retinal functionality of the animals in each group was evaluated by ERG before euthanasia and removal of the retinas for quantitative histochemical analysis.
(§4) Retinal function was evaluated by ERG, as reported in detail in example 2.
(§5) The study design involved 5 groups of 10 rats, 5 male and 5 female. […]

[2] = system: DP BB rats (Diabetes-Prone BioBreeding rats); experiment: CD31 immunohistochemistry and quantitative analysis of neovascular tuft formations in retinas of DP BB rats; type: in vivo, rat; details: daily s.c., peptide groups E, F, insulin alone group C, peptide+insulin group D
Procedure: The state of vascularization of the retina of the treated animals was studied on the whole retinas, using antibodies directed against CD31 (BD Biosciences, San Diego, Calif., USA), an important marker for the endothelial cells. The immunohistochemical tests on the retinas and quantitative analysis of the neovascular tuft formations, vascular and avascular areas, were conducted as reported in the literature (Exp Eye Res. 2013; 111:27-35; Invest Ophthalmol Vis Sci. 2012; 53:2181-2192; J Neurochem. 2011; 119:1317-1329; Invest Ophthalmol Vis Sci. 2006; 47:2125-2134). […]
The retinal vascularization images were acquired with an epifluorescence microscope (Eclipse E800; Nikon Corp., Amsterdam, Netherlands) using a digital camera converter (SD-Filc camera; Nikon Corp.). The electronic images were processed with image-processing software (Adobe Photoshop; Adobe Systems, Inc., Mountain View, Calif., USA) to allow quantitative analysis of the results. For each experimental condition, the quantitative data originated from 20 retinas of 10 different rats.
Table 3—Immunohistochemical tests on retinas and quantitative analysis of neovascular tuft formations. […] The electronic images were processed with image-processing software (Adobe Photoshop; Adobe Systems, Inc., Mountain View, Calif., USA) to allow quantitative analysis of the results. […]

[3] = system: DP BB rats (Diabetes-Prone BioBreeding rats); experiment: Retinal function by scotopic full-field ERG (SOPs) in diabetes-prone BioBreeding rats; details: daily s.c., peptide groups E, F, insulin alone group C, peptide+insulin group D
Procedure: (§6) The efficacy of formulation 3, described in example 1, in the treatment of the retinal vascular alterations associated with diabetes, was evaluated using as experimental model DP BB rats (Diabetes-Prone BioBreeding rats, M&B Bomholtvej, Denmark), analyzing the retinal function of the treated animals by electroretinography (ERG) and the state of vascularization of the retina by quantitative immunohistochemical techniques.
(§7) 60 3-week old DP BB rats of both sexes (30 male and 30 female) were used. […] The animals were observed from the 3rd to 30th weeks of life, monitoring various parameters, including weight, blood glucose, urine glucose and blood insulin. In particular, the onset of diabetes was evaluated by measuring blood glucose with the One-Touch profile (LifeScan, Milpitas, Calif.) twice a week, and every day from the 13th week; urine glucose with Clinistix (Bayer Diagnostica, Basingstoke, United Kingdom), twice a week; insulin levels twice a week, with an RIA Kit (BioRad, Milan, Italy). […]
(§8) The retinal functionality of the animals in each group was evaluated by ERG before euthanasia and removal of the retinas for quantitative histochemical analysis.
(§9) Retinal functionality was evaluated by ERG, using a scotopic full-field ERG. […] The wave amplitude was measured at a fixed time of 8 ms from the stimulus, to minimise non-photoreceptor contamination. […]

[4] = system: SD-STZ rats (Sprague-Dawley rats rendered diabetic with streptozotocin); experiment: Immunohistochemistry and quantitative analysis of neovascular tuft formations in retinas of SD-STZ rats; type: in vivo, rat; details: daily administration, peptide groups C and E, insulin alone group D
Description: 5) subcutaneously twice a day.
For each experimental condition, the quantitative data originated from 20 retinas of 10 different rats.
Table 5—Immunohistochemical tests on retinas and quantitative analysis of neovascular tuft formations. The state of vascularization of the retina of the treated animals was studied as reported in example 2. For each experimental condition, the quantitative data originated from 20 retinas of 10 different rats. […] The areas of neovascularization are expressed as the ratio between the area of neovascularization present in the animals which are not yet diabetic (Group A≈0.1% of the retinal area) and that of the group. […] 5) subcutaneously twice a day.

[5] = system: SD-STZ rats (Sprague-Dawley rats rendered diabetic with streptozotocin); details: rat, in vivo
Procedure: as §1, §2, §3, §4, §5

[6] = system: DP BB rats (Diabetes-Prone BioBreeding rats); details: rat, in vivo, sc
Procedure: as §6, §7, §8, §9

Compound: insulin
- effect on retinal vascular damage, in words (Table 4) [1]: gives rise to major retinal vascular damage
- effect on retinal vascular damage / NTA, in words (Table 3) [2]: causes a major increase in NTA
- effect on retinal vascular damage / eyesight, in words (Table 2) [3]: causes major retinal vascular damage
- effect on retinal vascular damage / NTA, in words (Table 5) [4]: leads to a major increase in NTA

Compound: CC(=O)NC(C)(C)C(=O)N[C@@H](CCCNC(=N)N)C(=O)NC(C)(C)C(=O)N[C@@H](CCCNC(=N)N)C(=O)NC(C)(Cc1ccccc1)C(N)=O (stereo partly drawn) [Ac-Aib-Arg-Aib-Arg-α(Me)Phe-NH2] (Ac-[Aib]R[Aib]R[ξαMeF]-NH2)
- effect on retinal vascular damage, in words (Table 4) [5]: prevent ab initio the formation of retinal vascular damage

Compound: CC(=O)N[C@@H](CCCNC(=N)N)C(=O)NC(C)(C)C(=O)N[C@@H](CCCNC(=N)N)C(=O)NC(C)(Cc1ccccc1)C(N)=O (stereo partly drawn) [Ac-Arg-Aib-Arg-α(Me)Phe-NH2] (Ac-R[Aib]R[ξαMeF]-NH2)
- effect on retinal vascular damage / eyesight, in words (Table 2) [6]: prevent the formation of retinal vascular damage
